The source of these data is PubChem BioAssay (NCI).

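48-hour exposure; five concentrations; linearly interpolated endpoints. GI50: concentration for 50% inhibition of growth. TGI marks complete inhibition of growth.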 Where a SMILES comes first, the peptide text is derived from it. The star is where a group is joined. Boc = CC(C)(C)OC(=O)*

For the first test, the system named is HCC-2998 colon. Nature of the test: NCI-60 cell line screen, 48 h.
`N#C/C(=C\c1cc(Br)c(O)c(Br)c1)c1cccnc1` came in with a TGI greater than 100 µM.

The subject of another test is A549 NSCLC. Nature of the test: NCI-60 cell line screen, 48 h.
With `CS(=O)(=O)OCCn1c(=O)n(CCOS(C)(=O)=O)c(=O)n(CCOS(C)(=O)=O)c1=O`, the TGI is greater than 100 µM.

As for `c1ccc2c(c1)NC(C1OC3CCCN3C1C1Nc3ccccc3S1)S2` (centres undefined), the TGI is greater than 100 µM.

The compound `CC(C)(C)NC(=O)/C(=C\Sc1ccccc1)c1ccc2c(c1)OCO2` gave a TGI greater than 100 µM.

Compound `COc1nc(C#CCC(C)O)nc(OC)n1` (centres undefined) registered a TGI of 52.9 µM.

Take `O=C1C[C@H](Sc2ccccc2)C2(OCCO2)[C@@H](Sc2ccccc2)C1`: the TGI was found to be 28 µM.

Consider `Cc1c2c(n(CCc3ccc(Cl)cc3)c1C)NN=C(C#N)S2(=O)=O`, for which the TGI is greater than 100 µM.

In turn, `CCN(C(=S)N[C@@H](Cc1ccccc1)C(=O)N[C@@H](CC(C)C)C(=O)OC)c1ccccc1` had a TGI greater than 100 µM.

On to `N#CCCN(CCC#N)c1ccc(/C=C2\N=C(c3ccccc3)N(c3ccc(Cl)cc3)C2=O)cc1`, for which the TGI is greater than 100 µM.

In turn, `Cc1c(S(=O)(=O)/N=C(\N)Nc2ccc(Cl)cc2)sc2ccc(Cl)cc12` came in with a TGI of 46.8 µM.

Regarding `CC12CC(=O)C3C(C(=O)C1)C32C` (centres undefined), the TGI is greater than 100 µM.

On to `COc1cc([N+](=O)[O-])c(OC)cc1-c1nc2sc(Cl)cn2c1/C=N/Nc1ccccn1`, for which the GI50 is greater than 50 µM and the TGI is greater than 50 µM.

Regarding `CC(=O)N/N=C1\NC(=O)C[C@H]2[C@@H]3CC=C4C[C@@H](OC(C)=O)CC[C@]4(C)[C@H]3CC[C@]12C`, the TGI was greater than 100 µM.

Compound `O=C1CN2C(c3ccccc3)=NN(c3ccc([N+](=O)[O-])cc3)C2(c2ccccc2)c2cc(Cl)ccc2N1CC1CC1` (centres undefined) returned a TGI greater than 100 µM.

Compound `COc1ccc2nc3cc(Cl)ccc3c(NCCCNCCCNc3c4ccc(Cl)cc4nc4ccc(OC)cc34)c2c1` registered a TGI of 0.165 µM.

Regarding `c1ccc2sc(SCSc3nc4ccccc4s3)nc2c1`, the TGI was greater than 100 µM.

The compound `O=c1oc(-c2ccc(O)c(O)c2)cc2cccc(O)c12` had a TGI greater than 100 µM.

Regarding `COc1cc2c(cc1-c1c(C)noc1C)cc(C)c(=O)n2Cc1ccccn1`, the GI50 is 1.76 µM and the TGI was greater than 100 µM.

Compound `CCOC(=O)c1c(-c2ccc(OC)cc2)c(C#N)c(=S)n(C2OC(COC(C)=O)C(OC(C)=O)C(OC(C)=O)C2OC(C)=O)c1C` (centres undefined) came in with a TGI greater than 100 µM.

Take `O=C(CCCN1CCC2(CC1)CC(=O)N(N1CCOCC1)C2=O)c1ccccc1`: the TGI is greater than 100 µM.

Regarding `O=[N+]([O-])/C(C(Cl)=C(Cl)Cl)=C(\Nc1cccc2cccnc12)SCc1ccccc1`, the TGI came out at 88.4 µM.

Consider `CCOC(=N)n1c(=O)n(C2=NCCN2)c2ccccc21`, for which the TGI was greater than 100 µM.

For `O=C(NCCN1CCOCC1)c1ccc2cc(C(=O)N3CC(CCl)c4ccc([N+](=O)[O-])cc43)[nH]c2c1` (centres undefined), the TGI was 26.1 µM.

As to `CSc1cc(Cl)c(C)cc1S(=O)(=O)NC(=O)NNc1ccc(Cl)cc1`, the TGI is greater than 100 µM.

`O=C(CNc1ccccc1Cl)Nn1c(-c2ccccc2)nc2ccccc2c1=O` came in with a TGI greater than 100 µM.

For the compound `Cc1cc2[nH]c3[nH]c(=O)[nH]c(=O)c3c2cc1C`, the TGI is greater than 100 µM.

Turning to `C/C=C/C=C/c1nc(C#N)c(N)o1`, the TGI was greater than 100 µM.

`O=c1c2ccccc2nc2[nH][nH]c(=S)n12`: the TGI is greater than 100 µM.

The compound `CC(C)(C)OC(=O)NCC(=O)NCC(=O)NCC(=O)NCC(=O)O` (Boc-GGGG-OH) yielded a TGI greater than 100 µM.

For `COc1ccc(CC(O)CN2CCOCC2)cc1` (centres undefined), the TGI was greater than 100 µM.

`COc1cc(C2SCC(=O)N2c2ccc(NC(=O)c3ccc(N4C(=O)CSC4c4cc(OC)c(OC)c(OC)c4)cc3)cc2)cc(OC)c1OC` (centres undefined) returned a TGI greater than 100 µM.

In the case of `N#C/C(=C\c1cc(Br)c(O)c(Br)c1)c1cccnc1`, the TGI was greater than 100 µM.

Another test deals with SK-MEL-5 melanoma. Nature of the test: NCI-60 cell line screen, 48 h.
Turning to `CS(=O)(=O)OCCn1c(=O)n(CCOS(C)(=O)=O)c(=O)n(CCOS(C)(=O)=O)c1=O`, the TGI was greater than 100 µM.

In turn, `c1ccc2c(c1)NC(C1OC3CCCN3C1C1Nc3ccccc3S1)S2` (centres undefined) had a TGI greater than 100 µM.

As to `CC(C)(C)NC(=O)/C(=C\Sc1ccccc1)c1ccc2c(c1)OCO2`, the TGI turned out to be 32.8 µM.

`COc1nc(C#CCC(C)O)nc(OC)n1` (centres undefined) displayed a TGI of 34.7 µM.

`O=C1C[C@H](Sc2ccccc2)C2(OCCO2)[C@@H](Sc2ccccc2)C1`: the TGI came to 4.23 µM.

Take `Cc1c2c(n(CCc3ccc(Cl)cc3)c1C)NN=C(C#N)S2(=O)=O`: the TGI was greater than 100 µM.

The compound `CCN(C(=S)N[C@@H](Cc1ccccc1)C(=O)N[C@@H](CC(C)C)C(=O)OC)c1ccccc1` came in with a TGI greater than 100 µM.

Consider `COc1ccc2cc(-c3ccc(-c4ccc(C(=N)N)s4)s3)ccc2c1`, for which the GI50 is 16.1 µM and the TGI was determined as 30.2 µM.

Consider `N#CCCN(CCC#N)c1ccc(/C=C2\N=C(c3ccccc3)N(c3ccc(Cl)cc3)C2=O)cc1`, for which the TGI is greater than 100 µM.

`Cc1c(S(=O)(=O)/N=C(\N)Nc2ccc(Cl)cc2)sc2ccc(Cl)cc12` came in with a TGI greater than 100 µM.

Compound `CC12CC(=O)C3C(C(=O)C1)C32C` (centres undefined) came in with a TGI greater than 100 µM.

Take `COc1cc([N+](=O)[O-])c(OC)cc1-c1nc2sc(Cl)cn2c1/C=N/Nc1ccccn1`: the GI50 is 12.8 µM and the TGI was 36 µM.

As to `CC(=O)N/N=C1\NC(=O)C[C@H]2[C@@H]3CC=C4C[C@@H](OC(C)=O)CC[C@]4(C)[C@H]3CC[C@]12C`, the TGI is greater than 100 µM.

With `O=C1CN2C(c3ccccc3)=NN(c3ccc([N+](=O)[O-])cc3)C2(c2ccccc2)c2cc(Cl)ccc2N1CC1CC1` (centres undefined), the TGI was greater than 100 µM.

As to `c1ccc2sc(SCSc3nc4ccccc4s3)nc2c1`, the TGI is greater than 100 µM.

`O=c1oc(-c2ccc(O)c(O)c2)cc2cccc(O)c12` had a TGI of 23.4 µM.

Consider `COc1cc2c(cc1-c1c(C)noc1C)cc(C)c(=O)n2Cc1ccccn1`, for which the GI50 is 1.99 µM and the TGI came to 10.7 µM.

Take `CCOC(=O)c1c(-c2ccc(OC)cc2)c(C#N)c(=S)n(C2OC(COC(C)=O)C(OC(C)=O)C(OC(C)=O)C2OC(C)=O)c1C` (centres undefined): the TGI was greater than 100 µM.

Consider `O=C(CCCN1CCC2(CC1)CC(=O)N(N1CCOCC1)C2=O)c1ccccc1`, for which the TGI was greater than 100 µM.

As to `O=C(NCCN1CCOCC1)c1ccc2cc(C(=O)N3CC(CCl)c4ccc([N+](=O)[O-])cc43)[nH]c2c1` (centres undefined), the TGI turned out to be 4.73 µM.

For `CSc1cc(Cl)c(C)cc1S(=O)(=O)NC(=O)NNc1ccc(Cl)cc1`, the TGI was greater than 100 µM.

In the case of `O=C(CNc1ccccc1Cl)Nn1c(-c2ccccc2)nc2ccccc2c1=O`, the TGI was 21.8 µM.

In turn, `Cc1cc2[nH]c3[nH]c(=O)[nH]c(=O)c3c2cc1C` showed a TGI greater than 100 µM.

In turn, `O=c1c2ccccc2nc2[nH][nH]c(=S)n12` came in with a TGI greater than 100 µM.

In the case of `CC(C)(C)OC(=O)NCC(=O)NCC(=O)NCC(=O)NCC(=O)O` (Boc-GGGG-OH), the TGI is greater than 100 µM.

`COc1ccc(CC(O)CN2CCOCC2)cc1` (centres undefined) registered a TGI greater than 100 µM.

With `COc1cc(C2SCC(=O)N2c2ccc(NC(=O)c3ccc(N4C(=O)CSC4c4cc(OC)c(OC)c(OC)c4)cc3)cc2)cc(OC)c1OC` (centres undefined), the TGI was greater than 100 µM.
